Test results as given in US20210361600A1, “METHODS FOR INDUCING CHONDROGENESIS” (THE SCRIPPS RESEARCH INSTITUTE, priority 2017, published 2021).
Where two headings read alike, the source gives them in different places.

Experiments:
[1] = Intra-articular acute toxicity study in the Beagle dog (toxicokinetics); details: for Tlast / AUC(0-t) / Cmax: male dogs, plasma
in vivo [2] = details: male, beagle, dog, 70 μg/knee/week
[3] = system: cartilage-oligo matrix protein (COMP); assay: In vitro chondrogenesis, transcript level by qPCR; assay type: cell-based, human; details: for Induction of COMP: 7-day treatment
Procedure: (§1) The RNA was exacted using RNeasy kit following the manufacturer's protocol. cDNA was synthesized using SuperScript III first strand synthesis kit and the transcript levels of proteoglycan 4 (PRG4), sex-determining region Y-Box 9 ([…]) and cartilage-oligo matrix protein (COMP) were determined using Taqman gene expression assays (probes) from ThermoFisher.
(§2) ΔΔCT method was applied to calculate the relative abundance of each gene using ([…] as normalizing control using ViiA 7 RUO software (ThermoFisher). The abundance of each gene of each sample was expressed as fold over DMSO-treated controls. n=3. Dose response for each marker gene was analyzed using GraphPad Prism 7 software.

proteoglycan 4 (PRG4) = assay: In vitro chondrogenesis, transcript level by qPCR; assay type: cell-based, human; details: for Induction of PRG4: 7-day treatment
Procedure: as §1, §2

SOX9 = assay: In vitro chondrogenesis, transcript level by qPCR; assay type: cell-based, human; details: for Induction of SOX9: 7-day treatment
Procedure: as §1, §2

Human MSCs = assay: Human chondrocyte differentiation assay; assay type: cell-based; details: 7 days; type II collagen, Sox9 and COMP immunostaining
Procedure: Human MSCs (50,000) were plated into each well of a 96-well plate and cultured overnight. […] The cells were fixed with 10% formalin solution at room temperature for 10 min, and immunostained using antibodies specific for type II collagen (Abcam), Sox9 (Santa Cruz) and cartilage oligomeric matrix protein (COMP, Santa Cruz), and fluorescently labeled secondary antibodies (Li-Cor). The total intensity of the staining was measured using Oddyssey CLx imaging system (Li-Cor). Vehicle (DMSO) was used as control to determine the basal level of chondrocyte differentiation. The result is shown in Table 1 [A: >50% increase in staining intensity compared to vehicle control; B: 30-50% increase in staining intensity compared to vehicle control].

in vivo [4] = details: Crl:CD(SD), rat
[5] = dog, in vivo
[6] = dose increment of 2.9 fold (from 35 to 100 ng)
[7] = single IA 35 μg/knee, individual animals 41M, 42M
[8] = single IA 100 μg/knee, individual animals 43M, 44M
[9] = single IA 200 μg/knee, individual animals 45M, 46M

Question: What does the source list for `COCCc1ccc(NC(=O)c2ccccc2NS(C)(=O)=O)cc1` [Compound A, N-(4-(2-methoxyethyl)phenyl)-2-(methylsulfonamido)benzamide]?
Answer: concentrations in synovial fluid samples ([1]; at study termination, below the LLQ): < 0.5 ng/mL; increase in mean AUC0-t [1, 6]: 0.7 fold; increase in mean Cmax [1, 6]: 0.7 fold; increase in mean AUC0-t ([1]; dose increment of 5.7 fold): approximately 1.5 fold; increase in mean Cmax ([1]; dose increment of 5.7 fold): approximately 1.5 fold; Tlast ([1]; single IA 35 μg/knee, Mean): 4.00 h; AUC(0-t) [1, 7]: 5.41 ng·h/mL; Cmax [1, 7]: 2.21 ng/mL; Tlast [1, 7]: 4.00 h; Tlast ([1]; single IA 100 μg/knee, Mean): 4.00 h; AUC(0-t) [1, 8]: 11.7 ng·h/mL; Cmax [1, 8]: 4.75 ng/mL; Tlast [1, 8]: 4.00 h; Tlast ([1]; single IA 200 μg/knee, Mean): 4.00 h; AUC(0-t) [1, 9]: 9.60 ng·h/mL; Cmax [1, 9]: 3.21 ng/mL; Tlast [1, 9]: 4.00 h; AUC(0-t) ([1]; male, beagle, dog, 35 μg/knee, AUC0-t, single IA 35 μg/knee, Mean): 5.31 ng·h/mL; AUC(0-t) ([1]; male, beagle, dog, 35 μg/knee, AUC0-t, single IA 35 μg/knee, individual animals 41M, 42M): 5.21 ng·h/mL; Cmax ([1]; male, beagle, dog, 35 μg/knee, Cmax, single IA 35 μg/knee, Mean): 2.17 ng/mL; Cmax ([1]; male, beagle, dog, 35 μg/knee, Cmax, single IA 35 μg/knee, individual animals 41M, 42M): 2.14 ng/mL; AUC(0-t) ([1]; male, beagle, dog, 100 μg/knee, AUC0-t, single IA 100 μg/knee, Mean): 12.3 ng·h/mL; AUC(0-t) ([1]; male, beagle, dog, 100 μg/knee, AUC0-t, single IA 100 μg/knee, individual animals 43M, 44M): 13 ng·h/mL; Cmax ([1]; male, beagle, dog, 100 μg/knee, Cmax, single IA 100 μg/knee, Mean): 4.59 ng/mL; Cmax ([1]; male, beagle, dog, 100 μg/knee, Cmax, single IA 100 μg/knee, individual animals 43M, 44M): 4.43 ng/mL; AUC(0-t) ([1]; male, beagle, dog, 200 μg/knee, AUC0-t, single IA 200 μg/knee, Mean): 8.89 ng·h/mL; AUC(0-t) ([1]; male, beagle, dog, 200 μg/knee, AUC0-t, single IA 200 μg/knee, individual animals 45M, 46M): 8.18 ng·h/mL; Cmax ([1]; male, beagle, dog, 200 μg/knee, Cmax, single IA 200 μg/knee, Mean): 3.01 ng/mL; Cmax ([1]; male, beagle, dog, 200 μg/knee, Cmax, single IA 200 μg/knee, individual animals 45M, 46M): 2.81 ng/mL; AUC(0-t) (in vivo [2]): 13.8 ng·h/mL; Induction of COMP ([3]; 0.457 nM): 1.005 ± 0.100 fold increase; Induction of COMP ([3]; 1.37 nM): 0.776 ± 0.107 fold increase; Induction of COMP ([3]; 4.11 nM): 1.322 ± 0.804 fold increase; Induction of COMP ([3]; 12.3 nM): 2.942 ± 0.575 fold increase; Induction of COMP ([3]; 37.0 nM): 1.356 ± 0.590 fold increase; Induction of COMP ([3]; 111 nM): 0.706 ± 0.193 fold increase; Induction of COMP ([3]; 333 nM): 1.896 ± 0.187 fold increase; Induction of COMP ([3]; 1000 nM): 3.121 ± 0.709 fold increase; EC50 ([3]; 168 h, primary human MSCs, 7 days, read-out: EC50 (COMP induction)): ~4.5 nM; Induction of PRG4 (proteoglycan 4 (PRG4); 0.457 nM): 1.082 ± 0.493 fold increase; Induction of PRG4 (proteoglycan 4 (PRG4); 1.37 nM): 0.582 ± 0.513 fold increase; Induction of PRG4 (proteoglycan 4 (PRG4); 4.11 nM): 1.795 ± 0.561 fold increase; Induction of PRG4 (proteoglycan 4 (PRG4); 12.3 nM): 2.226 ± 0.378 fold increase; Induction of PRG4 (proteoglycan 4 (PRG4); 37.0 nM): 1.204 ± 0.360 fold increase; Induction of PRG4 (proteoglycan 4 (PRG4); 111 nM): 1.024 ± 0.700 fold increase; Induction of PRG4 (proteoglycan 4 (PRG4); 333 nM): 2.22 ± 0.960 fold increase; Induction of PRG4 (proteoglycan 4 (PRG4); 1000 nM): 2.134 ± 0.785 fold increase; EC50 (proteoglycan 4 (PRG4); 168 h, primary human MSCs, 7 days, read-out: EC50 (PRG4 induction)): ~3.9 nM; Induction of SOX9 (SOX9; 0.457 nM): 1.022 ± 0.231 fold increase; Induction of SOX9 (SOX9; 1.37 nM): 1.002 ± 0.260 fold increase; Induction of SOX9 (SOX9; 4.11 nM): 3.296 ± 0.719 fold increase; Induction of SOX9 (SOX9; 12.3 nM): 2.505 ± 0.242 fold increase; Induction of SOX9 (SOX9; 37.0 nM): 1.768 ± 0.264 fold increase; Induction of SOX9 (SOX9; 111 nM): 1.977 ± 0.721 fold increase; Induction of SOX9 (SOX9; 333 nM): 4.193 ± 0.765 fold increase; EC50 (SOX9; 168 h, primary human MSCs, 7 days, read-out: EC50 (SOX9 induction)): ~2.2 nM; Biological Activity (increase in staining intensity compared to vehicle control) (Human MSCs): A (>50% increase in staining intensity compared to vehicle control); time up to which quantifiable in the plasma of all animals (in vivo [4]; both): at least 2 hours; AUC(0-t) (in vivo [4]; female, 70 ug/kg): 20.3 ng·h/mL; Cmax (in vivo [4]; female, 70 ug/kg): 11.6 ng/mL; AUC(0-t) (in vivo [4]; female, 70 ug/kg, AUC0-t): 18.5 ng·h/mL; Cmax (in vivo [4]; female, 70 ug/kg, Cmax): 19.5 ng/mL; AUC(0-t) (in vivo [4]; female, 140 ug/kg): 52.3 ng·h/mL; Cmax (in vivo [4]; female, 140 ug/kg): 34.5 ng/mL; AUC(0-t) (in vivo [4]; female, 140 ug/kg, AUC0-t): 43.5 ng·h/mL; Cmax (in vivo [4]; female, 140 ug/kg, Cmax): 42.3 ng/mL; AUC(0-t) (in vivo [4]; female, 200 ug/kg): 64.9 ng·h/mL; AUC(0-t) (in vivo [4]; female, 200 ug/kg, AUC0-t): 39.3 ng·h/mL; Cmax (in vivo [4]; female, 200 ug/kg, Cmax): 59.8 ng/mL; AUC(0-t) (in vivo [4]; male, 70 ug/kg): 8.14 ng·h/mL; Cmax (in vivo [4]; male, 70 ug/kg): 8.41 ng/mL; AUC(0-t) (in vivo [4]; male, 70 ug/kg, AUC0-t): 8.33 ng·h/mL; Cmax (in vivo [4]; male, 70 ug/kg, Cmax): 8.24 ng/mL; AUC(0-t) (in vivo [4]; male, 140 ug/kg): 18.4 ng·h/mL; Cmax (in vivo [4]; male, 140 ug/kg): 18.6 ng/mL; AUC(0-t) (in vivo [4]; male, 140 ug/kg, AUC0-t): 15.4 ng·h/mL; Cmax (in vivo [4]; male, 140 ug/kg, Cmax): 23.5 ng/mL; AUC(0-t) (in vivo [4]; male, 200 ug/kg): 35.5 ng·h/mL; AUC(0-t) (in vivo [4]; male, 200 ug/kg, AUC0-t): 22.9 ng·h/mL; Cmax (in vivo [4]; male, 200 ug/kg, Cmax): 33.9 ng/mL; time up to which quantifiable in the plasma of all animals ([5]; both, beagle, iv, 1.25 mg/kg): at least 12 hours; gender differences in systemic exposure (Cmax and AUC0-t) [5]: no significant gender differences; differences in systemic exposure following single and repeat weekly IV administration ([5]; iv): no significant differences; Cmax ([5]; female, Beagle, iv, 0.125 mg/kg): 209 ng/mL; Cmax ([5]; female, Beagle, iv, 0.6 mg/kg): 1190 ng/mL; AUC(0-t) ([5]; female, Beagle, iv, 1.25 mg/kg): 2300 ng·h/mL; Cmax ([5]; female, Beagle, iv, 1.25 mg/kg): 2480 ng/mL; AUC(0-t) ([5]; male, beagle, iv, 0.125 mg/kg): 211 ng·h/mL; Cmax ([5]; male, beagle, iv, 0.125 mg/kg): 197 ng/mL; AUC(0-t) ([5]; male, beagle, iv, 0.6 mg/kg): 1400 ng·h/mL; Cmax ([5]; male, beagle, iv, 0.6 mg/kg): 1140 ng/mL; AUC(0-t) ([5]; male, beagle, iv, 1.25 mg/kg): 2510 ng·h/mL; Cmax ([5]; male, beagle, iv, 1.25 mg/kg): 2150 ng/mL
